Measured values: paper PMC12668310, “High‐Throughput Synthesis and Screening of a Cyanimide Library Identifies Selective Inhibitors of ISG15‐Specific Protease mUSP18” (Angewandte Chemie (International Ed. in English), 2025)

Columns and labels:
[1] = target: T1, mUSP18 (Mus musculus, UniProt Q9WTV6); assay: IC50 determination, fluorogenic ISG15CT-Rho-morpholine activity assay; type: biochemical, murine; settings: pure (re-synthesized) compound; mean ± SD n = 3
T1 construct: (46-368); His-tag (N); made in house
T1 sequence (Q9WTV6 46-368): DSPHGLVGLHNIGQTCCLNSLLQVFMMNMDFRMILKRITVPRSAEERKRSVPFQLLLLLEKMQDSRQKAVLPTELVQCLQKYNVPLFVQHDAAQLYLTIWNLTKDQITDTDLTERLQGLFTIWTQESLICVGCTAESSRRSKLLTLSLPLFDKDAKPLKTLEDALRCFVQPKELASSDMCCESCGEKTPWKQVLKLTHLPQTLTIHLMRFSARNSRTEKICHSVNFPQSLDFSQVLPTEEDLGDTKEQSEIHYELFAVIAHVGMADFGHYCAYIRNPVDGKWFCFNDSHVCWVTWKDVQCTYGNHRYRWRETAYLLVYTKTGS

[2] = test system: 12 Ub(‐like) proteases; assay: High-throughput screening, whole panel of twelve enzymes; type: biochemical; settings: crude mixture, 1.25 µM; enzymes other than mUSP18
Procedure: Since the in‐plate synthesis was conducted in 1536‐well Echo plates, the compounds could readily be transferred from these plates into 1536‐well assay plates using acoustic liquid dispensing (Figure 2a) and subjected to HTS. We screened the whole 7536 compound library against a panel of twelve enzymes, including three DUBs from the UCH family, two DUBs from the OTU family, five DUBs from the USP family, plus ISG15 protease USP18, and SUMO protease SENP1. Each compound was tested at a single dose of 1.25 µM, assuming full conversion (10 mM in DMSO of the formed products) during the in‐plate synthesis, using the fluorogenic assay described above. […] The compounds are sorted by the amine building blocks (BB1‐16), and within each BB, sorted by carboxylic acid (CA1‐471), thereby providing a comprehensive and systematic overview of the overall inhibition by each BB and CA combination. Some interesting patterns can be obtained from this map. […] Indeed, BB10 is the privileged scaffold for UCHL1 as it originates from UCHL1 inhibitor 5 (Figure 1). […]
The percentage inhibition was calculated for each well using the […]
Where FIx is the fluorescence intensity of each well, FIpos is the average fluorescence intensity of the positive (NEM) control wells, and FIneg is the average fluorescence intensity of the negative (DMSO) control wells.

[3] = target: T1, mUSP18; assay: High-throughput screening, ISG15ct-RhoMP, single dose 1.25 µM; type: biochemical, murine; settings: crude in-plate synthesized compound, 1.25 µM assuming full conversion; read-out: %inhibition mUSP18
[4] = target: T2, Flag-mUSP18 (Mus musculus, UniProt Q9WTV6); assay: Gel-based ABPP with Rho-mISG15ct-PA probe in HEK293T cells overexpressing Flag-mUSP18; type: cell-based, murine; settings: live HEK293T cells, Flag-mUSP18, 4 h treatment
T2 construct: expressed in transfected cells; host or cells: HEK293T
T2 sequence (Q9WTV6 1-368): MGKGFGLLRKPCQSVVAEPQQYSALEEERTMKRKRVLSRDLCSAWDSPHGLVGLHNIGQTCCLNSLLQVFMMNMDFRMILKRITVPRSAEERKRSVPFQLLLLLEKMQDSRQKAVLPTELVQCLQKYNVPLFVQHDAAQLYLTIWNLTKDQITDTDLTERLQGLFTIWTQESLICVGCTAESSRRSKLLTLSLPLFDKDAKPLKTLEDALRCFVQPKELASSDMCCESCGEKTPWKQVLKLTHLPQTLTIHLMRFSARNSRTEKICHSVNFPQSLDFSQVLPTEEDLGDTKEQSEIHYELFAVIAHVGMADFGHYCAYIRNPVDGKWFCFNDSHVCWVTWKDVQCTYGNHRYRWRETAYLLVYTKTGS
Procedure: To assess the cellular target engagement and cell permeability of these inhibitors, we performed activity‐based protein profiling. […] Following washing and cell lysis, cell extracts were incubated with a Rhodamine‐tagged murine ISG15 C‐terminal domain propargylamide activity‐based probe (Rho‐mISG15ct‐PA), which covalently labels the active site cysteine of active deISGylating enzymes.^[ [41] ^] The labelled enzymes were resolved by SDS‐PAGE and imaged by in‐gel fluorescence, where inhibition of USP18 is reflected by disappearance of the USP18‐probe‐labelled bands around 55 kDa (Figures 6a, S11A). All three inhibitors engaged with cellular mUSP18 in a dose‐dependent manner, with BB07CA902 and BB07CA28 showing efficient inhibition already at 1 µM concentration. […] The in‐cell selectivity of these inhibitors for USP18 over DUBs was confirmed in a similar ABPP experiment using a Rhodamine‐tagged ubiquitin propargylamide probe (Rho‐Ub‐PA),^[ [42] ^] which labels the active site cysteine of all active cysteine DUBs.
Figure 6 Inhibition of murine USP18 activity in living cells. a) Gel‐based ABPP potency assessment using a Rho‐mISG15ct‐PA probe in HEK293T cells overexpressing Flag‐mUSP18. At 24 h following transfection, cells were incubated with DMSO or increasing concentrations of indicated inhibitors for 4 h, lysed, and treated with Rho‐mISG15ct‐PA probe. Top panel: fluorescence scan. Middle panel: anti‐Flag western blot. Bottom panel: anti‐GAPDH western blot confirms equal loading. b) Accumulation of ISGylation in mouse IFN‐β‐stimulated EL4 cells. At 24 h following mouse IFN‐β treatment, cells were incubated with DMSO or increasing concentrations of indicated inhibitors for 4 h, lysed, and treated with Rho‐mISG15ct‐PA probe. […] Middle panel: fluorescence scan. […]
Samples were then diluted 3-fold with water and analyzed by mass spectrometry by injecting 2 μL into a Waters XEVO-G2 XS Q-TOF mass spectrometer equipped with an electrospray ion source in positive mode (capillary voltage 1.2 kV, desolvation gas flow 900 L/h, T = 60 °C) with a resolution of R = 26,000. […]

[5] = test system: cellular ISGylation in EL4 cells; assay: ISGylation accumulation in mouse IFN-β-stimulated EL4 cells (anti-mISG15 western blot); type: cell-based; settings: 4 h treatment, anti-mISG15 blot
Procedure: Figure 6 Inhibition of murine USP18 activity in living cells. a) Gel‐based ABPP potency assessment using a Rho‐mISG15ct‐PA probe in HEK293T cells overexpressing Flag‐mUSP18. At 24 h following transfection, cells were incubated with DMSO or increasing concentrations of indicated inhibitors for 4 h, lysed, and treated with Rho‐mISG15ct‐PA probe. Top panel: fluorescence scan. Middle panel: anti‐Flag western blot. Bottom panel: anti‐GAPDH western blot confirms equal loading. b) Accumulation of ISGylation in mouse IFN‐β‐stimulated EL4 cells. At 24 h following mouse IFN‐β treatment, cells were incubated with DMSO or increasing concentrations of indicated inhibitors for 4 h, lysed, and treated with Rho‐mISG15ct‐PA probe. Top panel: anti‐mISG15 western blot. Middle panel: fluorescence scan. Bottom panel: anti‐β‐actin western blot confirms equal loading.
Ultimately, we were interested in whether USP18 inhibitor treatment could result in a relevant phenotype in cells. USP18 is the major deISGylase to remove ISG15 from target proteins, and genetic inactivation of USP18 isopeptidase activity leads to enhanced ISGylation in vivo and in cells.^[ [26] ^] We therefore examined whether the USP18 inhibitors enhance cellular ISGylation. Accordingly, EL4 cells were stimulated with IFN‐β to induce the ISG15 machinery, prior to treatment with the inhibitors. After cell lysis and SDS‐PAGE, ISGylated proteins were stained by immunoblotting with an ISG15 antibody (Figure 6b, top panel). […] To confirm inhibition of endogenous USP18 in these experiments, samples were post‐lysis treated with Rho‐mISG15ct‐PA probe.
Generation of ISGylation and in-cell inhibition assay
Mouse EL4 cells were stimulated with 300 U/mL mouse IFN-β. At 24 hours following stimulation, cells were incubated with indicated compounds at the indicated final concentrations at 37 °C for 4 hours, then washed twice with PBS and harvested for further […]
Activity-based probe labelling
The in-cell inhibition of DUBs and mUSP18 was assessed using activity-based probe labelling assays. In brief, cell pellets were resuspended in HR buffer (50 mM Tris-HCl, 5 mM MgCl 2, 250 mM sucrose, 2 mM TCEP and a Protease inhibitor tablet (Roche), pH 7.4), and lysed by sonication (Bioruptor, Diagenode, high intensity for 10 minutes with an ON/OFF cycle of 30 seconds) at 4°C. 40 μg clarified cell lysate was incubated with Rhodamine-mISG15ct-propargylamide probe[1] (final concentration 1 μM) or Rhodamine-Ubiquitin-propargylamide probe[13] (final concentration 1 μM) at 37 °C for 30 min. Reactions were stopped by the addition of LDS (lithium dodecyl sulfate) sample buffer (Invitrogen Life Technologies, Carlsbad, CA, USA) containing 2.5% β-mercaptoethanol, followed by boiling for 7 minutes.
SDS-PAGE, in-gel fluorescence scanning, and immunoblotting
Samples were resolved on precast Bis-Tris NuPAGE Gels (Invitrogen, including 4-12%, and 10% for different samples) using MOPS buffer (Invitrogen Life Technologies, Carlsbad, CA, USA). For fluorescence scan, labeled enzymes were visualized by in-gel fluorescence using a Typhoon FLA 9500 imaging system (GE Healthcare Life Sciences) (Rhodamine channel for probe, Cy5 channel for protein marker).
For immunoblotting, proteins were transferred to a nitrocellulose membrane (Protan BA85, 0.45 μm, GE Healthcare) at 300 mA for 3 hours. […]

N#CN1C[C@H]2C[C@H](NC(=O)CCC3CCCCC3)C[C@H]2C1 [BB07CA48]
IC50 [1]: 0.24 ± 0.0099 µM
inhibition of all other enzymes tested [2]: negligible inhibition
inhibition at 1.25 µM [3]: 75%

Cc1cc(C(=O)N[C@@H]2C[C@@H]3CN(C#N)C[C@@H]3C2)ccc1C(C)C [BB06CA902]
concentration at which inhibition of mUSP18 probe labelling is observed [4]: 100 µM
effect on cellular ISGylation [5]: hardly affected ISGylation
